Experimental findings from ChEMBL document CHEMBL3727364, “Resorcinol n-aryl amide compounds, for use as pyruvate dehydrogenase kinase inhibitors” (2015) are described below.

The structures appear in SMILES notation.

[Pyruvate dehydrogenase (acetyl-transferring)] kinase isozyme 1, mitochondrial, sequence (Q15118 whole entry): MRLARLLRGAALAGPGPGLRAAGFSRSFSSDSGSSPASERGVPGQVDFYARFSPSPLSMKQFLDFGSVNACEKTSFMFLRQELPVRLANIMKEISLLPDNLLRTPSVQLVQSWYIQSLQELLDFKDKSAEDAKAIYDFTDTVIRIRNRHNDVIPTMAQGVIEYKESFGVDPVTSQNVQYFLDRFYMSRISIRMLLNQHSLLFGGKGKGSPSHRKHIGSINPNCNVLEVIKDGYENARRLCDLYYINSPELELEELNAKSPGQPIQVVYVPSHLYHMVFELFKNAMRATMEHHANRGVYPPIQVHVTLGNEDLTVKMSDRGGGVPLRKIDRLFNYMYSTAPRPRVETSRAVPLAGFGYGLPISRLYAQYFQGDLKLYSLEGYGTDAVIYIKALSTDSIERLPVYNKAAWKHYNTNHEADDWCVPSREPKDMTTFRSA

The first assay addresses [Pyruvate dehydrogenase (acetyl-transferring)] kinase isozyme 1, mitochondrial (Homo sapiens, UniProt Q15118). In words: Binding affinity to pyruvate dehydrogenase kinase 1 (unknown origin) incubated for 90 mins by VER-00160364 probe based fluorescence polarization assay.
Conditions: not given
On the technique in general: In fluorescence polarisation assays a small probe gives low polarisation when free and higher when bound to something large.
Usually IC50 stands for the concentration at which inhibition is half-maximal. A high value points to lower potency. Consider `Cc1cc2ccccc2nc1-c1ccc(N(Cc2cc(F)cc(F)c2)C(=O)c2ccc(O)cc2O)cc1`, for which the IC50 was 1000 nM.

`Cc1cc2ccccc2nc1-c1ccc(N(Cc2ccc(F)c(F)c2)C(=O)c2ccc(O)cc2O)cc1` came in with an IC50 of 100 nM.

Regarding `Cc1cnc(Cl)nc1-c1ccc(N(Cc2ccc(CN3CCCC3)cc2)C(=O)c2ccc(O)cc2O)cc1`, the IC50 is 10 nM.

As to `CN(C)C(=O)c1ccc(N(Cc2cccc3c2cnn3C)C(=O)c2ccc(O)cc2O)cc1`, the IC50 stood at 100 nM.

`CN(Cc1ccc2nccnc2c1)C(=O)c1ccc(N(Cc2ccsc2)C(=O)c2ccc(O)cc2O)cc1`: the IC50 came to 10 nM.

Turning to `CCNCc1ccc(CN(C(=O)c2ccc(O)cc2O)c2ccc(-c3nc4ccccc4cc3C)cc2)cc1`, the IC50 is 100 nM.

For `COc1cnc(Cl)nc1-c1ccc(N(Cc2cccnc2)C(=O)c2ccc(O)cc2O)cc1`, the IC50 is 10 nM.

With `Cc1cc(S(=O)(=O)NCc2cccs2)cnc1-c1ccc(N(Cc2cccnc2)C(=O)c2ccc(O)cc2O)cc1`, the IC50 turned out to be 10 nM.

For `Cc1cnc(Cl)nc1-c1ccc(N(Cc2ccccc2)C(=O)c2cc(C(F)(F)F)c(O)cc2O)cc1`, the IC50 was 1000 nM.

With `Cc1cc(S(=O)(=O)NCc2ccccc2)cnc1-c1ccc(N(Cc2cccnc2)C(=O)c2ccc(O)cc2O)cc1`, the IC50 is 10 nM.

`O=C(Nc1ccc(N(Cc2ccccc2)C(=O)c2ccc(O)cc2O)cc1)NC1CCCC1` showed an IC50 of 10000 nM.

`O=C(Nc1ccc(N(Cc2ccccc2)C(=O)c2ccc(O)cc2O)cc1)c1ccccc1` came in with an IC50 of 1000 nM.

As for `CC(=O)Nc1ccc(N(Cc2ccccc2)C(=O)c2ccc(O)cc2O)cc1`, the IC50 was found to be 1000 nM.

In turn, `O=C(Nc1ccc(N(Cc2ccccc2)C(=O)c2ccc(O)cc2O)cc1)c1cc2ccccc2s1` came in with an IC50 of 10000 nM.

`O=C(c1ccc(O)cc1O)N(Cc1ccccc1)c1ccc(-c2nc(Cl)nn3cccc23)cc1`: the IC50 was found to be 1000 nM.

Turning to `CN(C)C(=O)c1ccc(N(CC2CCCC2)C(=O)c2ccc(O)cc2O)cc1`, the IC50 is 100 nM.

`CCNC(=O)Nc1ccc(N(Cc2ccccc2)C(=O)c2ccc(O)cc2O)cc1` registered an IC50 of 1000 nM.

On to `Cc1ccc(Cl)cc1-c1ccc(N(Cc2ccccc2)C(=O)c2ccc(O)cc2O)cc1`, for which the IC50 amounted to 1000 nM.

Molecule `O=C(Cc1ccccc1)Nc1ccc(N(Cc2ccccc2)C(=O)c2ccc(O)cc2O)cc1` registered an IC50 of 1000 nM.

`CN(C)C(=O)c1ccc(N(Cc2csc3ccc(Cl)cc23)C(=O)c2cc(Cl)c(O)cc2O)cc1` registered an IC50 of 1000 nM.

For `CN(C)C(=O)c1ccc(N(Cc2ccncc2)C(=O)c2cc(Cl)c(O)cc2O)cc1`, the IC50 worked out at 1000 nM.

`Cc1noc(-c2ccccc2CN(C(=O)c2ccc(O)cc2O)c2ccc(-c3nc4ccccc4cc3C)cc2)n1` returned an IC50 of 10 nM.

`Cc1cc2ccccc2nc1-c1ccc(N(Cc2ccc(F)cc2)C(=O)c2ccc(O)cc2O)cc1` showed an IC50 of 100 nM.

Consider `Cc1cc2ccccc2nc1-c1ccc(N(Cc2cccc(F)c2)C(=O)c2ccc(O)cc2O)cc1`, for which the IC50 was 10 nM.

`COc1ccc(CN(C)C(=O)c2ccc(N(Cc3cc(C)no3)C(=O)c3cc(Cl)c(O)cc3O)cc2)cc1` gave an IC50 of 100 nM.

`CN(C)C(=O)c1ccc(N(Cc2ccn(C)n2)C(=O)c2cc(Cl)c(O)cc2O)cc1` had an IC50 of 10000 nM.

`Cc1cc(S(=O)(=O)NCc2cccnc2)cnc1-c1ccc(N(Cc2ccccc2)C(=O)c2cc(Cl)c(O)cc2O)cc1` displayed an IC50 of 100 nM.

Consider `Cc1cc(S(=O)(=O)N2CC(F)(F)C2)cnc1-c1ccc(N(Cc2ccccc2)C(=O)c2ccc(O)cc2O)cc1`, for which the IC50 was 100 nM.

Turning to `O=C(NCc1ccccc1)Nc1ccc(N(Cc2ccccc2)C(=O)c2ccc(O)cc2O)cc1`, the IC50 is 1000 nM.

`CSc1ccc(CN(C(=O)c2ccc(O)cc2O)c2ccc(-c3nc4ccccc4cc3C)cc2)cc1` had an IC50 of 100 nM.

Turning to `COC(=O)c1nc(-c2ccc(N(Cc3ccsc3)C(=O)c3ccc(O)cc3O)cc2)c2ccccc2n1`, the IC50 came out at 100 nM.

The molecule `Cc1cc(S(=O)(=O)N2CCOCC2)cnc1-c1ccc(N(Cc2ccsc2)C(=O)c2ccc(O)cc2O)cc1` showed an IC50 of 100 nM.

With `Cc1cc2ccccc2nc1-c1ccc(N(Cc2cccc3ccccc23)C(=O)c2ccc(O)cc2O)cc1`, the IC50 came to 100 nM.

Molecule `O=C(Nc1ccc(N(Cc2ccccc2)C(=O)c2ccc(O)cc2O)cc1)NC1CCNCC1` came in with an IC50 of 10000 nM.

In the case of `CN(C)C(=O)c1ccc(N(CC2CCNCC2)C(=O)c2cc(Cl)c(O)cc2O)cc1`, the IC50 was 100 nM.

In turn, `COc1cnc(Cl)nc1-c1ccc(N(Cc2ccccc2)C(=O)c2cc(C)c(O)cc2O)cc1` had an IC50 of 1000 nM.

On to `CN(C)C(=O)c1ccc(N(Cc2ccccn2)C(=O)c2cc(Cl)c(O)cc2O)cc1`, for which the IC50 was found to be 100 nM.

With `Cc1cc2ccccc2nc1-c1ccc(N(Cc2ccc(CN(C)C)cc2)C(=O)c2ccc(O)cc2O)cc1`, the half-maximal inhibitory concentration (IC50) was 100 nM.

In turn, `CS(=O)(=O)Nc1ccc(N(Cc2ccccc2)C(=O)c2ccc(O)cc2O)cc1` displayed an IC50 of 1000 nM.

Consider `COc1cnc(Cl)nc1-c1ccc(N(Cc2ccccc2)C(=O)c2cc(Cl)c(O)cc2O)cc1`, for which the IC50 worked out at 100 nM.

In turn, `CN(C)C(=O)c1ccc(N(CCN2CCCCC2)C(=O)c2cc(Cl)c(O)cc2O)cc1` yielded an IC50 of 100 nM.

With `Cc1cc(C(=O)Nc2ccc(N(Cc3ccccc3)C(=O)c3ccc(O)cc3O)cc2)no1`, the IC50 amounted to 10000 nM.

`O=C(c1ccc(O)cc1O)N(Cc1ccccc1)c1ccc(-c2nc(Cl)c3c(n2)CCSC3)cc1` returned an IC50 of 10 nM.

As to `Cc1cc(C(=O)N(Cc2ccccc2)c2ccc(-c3nc(Cl)ncc3C)cc2)c(O)cc1O`, the IC50 came to 100 nM.

In turn, `Cc1cc2ccccc2nc1-c1ccc(N(Cc2ccc(CN3CCCC3)cc2)C(=O)c2ccc(O)cc2O)cc1` came in with an IC50 of 100 nM.

As for `CN(C)C(=O)c1ccc(N(Cc2c[nH]cn2)C(=O)c2cc(Cl)c(O)cc2O)cc1`, the IC50 is 1000 nM.

Molecule `CN(C)C(=O)c1ccc(N(Cc2nc3ccccc3[nH]2)C(=O)c2cc(Cl)c(O)cc2O)cc1` gave an IC50 of 1000 nM.

On to `Cc1cc2ccccc2nc1-c1ccc(N(Cc2ccc(CN3CCOCC3)cc2)C(=O)c2ccc(O)cc2O)cc1`, for which the IC50 was 1000 nM.

Molecule `Cc1cnc(Cl)nc1-c1ccc(N(Cc2cccnc2)C(=O)c2ccc(O)cc2O)cc1` registered an IC50 of 10 nM.

Regarding `Cc1cc2ccccc2nc1-c1ccc(N(Cc2ccc(Cl)cc2)C(=O)c2ccc(O)cc2O)cc1`, the IC50 was found to be 1000 nM.

Molecule `CN(Cc1ccc2ccccc2c1)C(=O)c1ccc(N(Cc2cccnc2)C(=O)c2ccc(O)cc2O)cc1` registered an IC50 of 10 nM.

On to `O=C(Nc1ccc(N(Cc2ccccc2)C(=O)c2ccc(O)cc2O)cc1)c1cc2ccccc2[nH]1`, for which the IC50 came to 10000 nM.

Turning to `O=C(Nc1ccc(N(Cc2ccccc2)C(=O)c2ccc(O)cc2O)cc1)Nc1cccnc1`, the IC50 is 1000 nM.

`CN(C)C(=O)c1ccc(N(Cc2ccn(C)n2)C(=O)c2ccc(O)cc2O)cc1` showed an IC50 of 100 nM.

In turn, `Cc1ccc(CN(C(=O)c2ccc(O)cc2O)c2ccc(-c3nc4ccccc4cc3C)cc2)cc1` came in with an IC50 of 10 nM.

`CN(C)C(=O)c1ccc(N(CC2CCCC2)C(=O)c2cc(Cl)c(O)cc2O)cc1`: the IC50 was determined as 100 nM.

The next assay concerns the target Pyruvate dehydrogenase kinase (Homo sapiens, UniProt Q15119+Q15120+Q16654+Q15118). In words: Inhibition of pyruvate dehydrogenase kinase in human PC3 cells incubated for 90 mins by phospho(Ser293)E1alpha MSP ELISA method. The format is cell-based. The settings on record: pc-3. For orientation: An ELISA detects its analyte on a solid surface through an enzyme-linked reagent.
The molecule `COc1cnc(Cl)nc1-c1ccc(N(Cc2cnsc2)C(=O)c2ccc(O)cc2O)cc1` yielded an IC50 of 1000 nM.

Consider `Cc1cnc(Cl)nc1-c1ccc(N(Cc2cccc(CN(C)C)c2)C(=O)c2ccc(O)cc2O)cc1`, for which the IC50 was 1000 nM.

`Cc1cc(S(=O)(=O)NCc2cccs2)cnc1-c1ccc(N(Cc2cnsc2)C(=O)c2ccc(O)cc2O)cc1`: the half-inhibitory concentration (IC50) worked out at 1000 nM.

With `CN(Cc1ccc2nccnc2c1)C(=O)c1ccc(N(Cc2ccsc2)C(=O)c2ccc(O)cc2O)cc1`, the IC50 is 1000 nM.

Turning to `Cc1cc(C(=O)N(Cc2ccccc2)c2ccc(C(=O)N(C)C)cc2)c(O)cc1O`, the IC50 was found to be 1000 nM.

In turn, `COc1cnc(Cl)nc1-c1ccc(N(Cc2cccnc2)C(=O)c2ccc(O)cc2O)cc1` showed an IC50 of 1000 nM.

Turning to `Cc1cc(S(=O)(=O)NCc2cccs2)cnc1-c1ccc(N(Cc2cccnc2)C(=O)c2ccc(O)cc2O)cc1`, the IC50 came out at 1000 nM.

Consider `Cc1cc(S(=O)(=O)NCc2ccccc2)cnc1-c1ccc(N(Cc2cccnc2)C(=O)c2ccc(O)cc2O)cc1`, for which the IC50 was found to be 1000 nM.

Molecule `COC1CCN(Cc2ccc(CN(C(=O)c3ccc(O)cc3O)c3ccc(-c4nc(Cl)ncc4C)cc3)cc2)C1` (stereo unspecified) yielded an IC50 of 100 nM.

As for `Cc1cnc(Cl)nc1-c1ccc(N(Cc2cccc(Cl)c2)C(=O)c2ccc(O)cc2O)cc1`, the IC50 is recorded as 100 nM.

In turn, `Cc1cc2ccccc2nc1-c1ccc(N(Cc2ccc(OCCN3CCCC3)cc2)C(=O)c2ccc(O)cc2O)cc1` came in with an IC50 of 1000 nM.

Turning to `Cc1cnc(Cl)nc1-c1ccc(N(Cc2cccc(OCCN3CCOCC3)c2)C(=O)c2ccc(O)cc2O)cc1`, the half-inhibitory concentration (IC50) is 1000 nM.

`COc1ccc(CN(C)C(=O)c2ccc(N(Cc3cc(C)no3)C(=O)c3cc(Cl)c(O)cc3O)cc2)cc1` yielded an IC50 of 1000 nM.

Turning to `Cc1cnc(Cl)nc1-c1ccc(N(Cc2ccc(CN3CCC(F)(F)C3)cc2)C(=O)c2ccc(O)cc2O)cc1`, the IC50 was determined as 100 nM.

Consider `Cc1cc(S(=O)(=O)NCc2cccnc2)cnc1-c1ccc(N(Cc2ccccc2)C(=O)c2cc(Cl)c(O)cc2O)cc1`, for which the IC50 came out at 1000 nM.

In turn, `Cc1cnc(Cl)nc1-c1ccc(N(Cc2ccc(CNC(=O)C3CCC3)cc2)C(=O)c2ccc(O)cc2O)cc1` registered an IC50 of 100 nM.

`Cc1cnc(Cl)nc1-c1ccc(N(Cc2cccc(OCCN(C)C)c2)C(=O)c2ccc(O)cc2O)cc1` came in with an IC50 of 1000 nM.

With `CCN(CC)CCOc1ccc(CN(C(=O)c2ccc(O)cc2O)c2ccc(-c3nc4ccccc4cc3C)cc2)cc1`, the IC50 is 1000 nM.

The molecule `Cc1cc(S(=O)(=O)N2CC(F)(F)C2)cnc1-c1ccc(N(Cc2ccccc2)C(=O)c2ccc(O)cc2O)cc1` showed an IC50 of 10000 nM.

The molecule `CCc1cnc(C)nc1-c1ccc(N(Cc2ccsc2)C(=O)c2ccc(O)cc2O)cc1` registered an IC50 of 1000 nM.

Molecule `Cc1cnc(Cl)nc1-c1ccc(N(Cc2ccc(CNC(=O)[C@H](C)NC(=O)OCc3ccccc3)cc2)C(=O)c2ccc(O)cc2O)cc1` showed an IC50 of 100 nM.

With `COC(=O)c1nc(-c2ccc(N(Cc3ccsc3)C(=O)c3ccc(O)cc3O)cc2)c2ccccc2n1`, the IC50 came to 1000 nM.

The molecule `Cc1cc(S(=O)(=O)N2CCOCC2)cnc1-c1ccc(N(Cc2ccsc2)C(=O)c2ccc(O)cc2O)cc1` displayed an IC50 of 1000 nM.

In turn, `Cc1cnc(Cl)nc1-c1ccc(N(Cc2cccc(CN3CCCCC3)c2)C(=O)c2ccc(O)cc2O)cc1` yielded an IC50 of 1000 nM.

As for `COc1cnc(Cl)nc1-c1ccc(N(Cc2ccccc2)C(=O)c2cc(Cl)c(O)cc2O)cc1`, the IC50 is given as 100 nM.

Molecule `Cc1cc(C(=O)N(Cc2ccccc2)c2ccc(C(=O)N(C)Cc3ccc4nccnc4c3)cc2)c(O)cc1O` had an IC50 of 1000 nM.

As to `Cc1cnc(Cl)nc1-c1ccc(N(Cc2ccc(CNC(=O)c3cccs3)cc2)C(=O)c2ccc(O)cc2O)cc1`, the IC50 is reported as 100 nM.

`Cc1cc(S(=O)(=O)NCc2ccccn2)cnc1-c1ccc(N(Cc2ccsc2)C(=O)c2cc(Cl)c(O)cc2O)cc1`: the IC50 is 1000 nM.

In turn, `Cc1cnc(Cl)nc1-c1ccc(N(Cc2cccnc2)C(=O)c2ccc(O)cc2O)cc1` came in with an IC50 of 1000 nM.

Molecule `CN(Cc1ccc2ccccc2c1)C(=O)c1ccc(N(Cc2cccnc2)C(=O)c2ccc(O)cc2O)cc1` had an IC50 of 1000 nM.
